# Data from ChEMBL document CHEMBL3991601, “The target landscape of clinical kinase drugs” (Science, 2017).
# Calls of active or inactive are those of the source. Cut-off read from the data, not from the text of the source, for most assays here: actives have a measured Kd and inactives only a lower limit.
# What was measured:
# [1] = target: T1, Dual specificity mitogen-activated protein kinase kinase 6 (Homo sapiens, UniProt P52564)
# T1 sequence (P52564 whole entry): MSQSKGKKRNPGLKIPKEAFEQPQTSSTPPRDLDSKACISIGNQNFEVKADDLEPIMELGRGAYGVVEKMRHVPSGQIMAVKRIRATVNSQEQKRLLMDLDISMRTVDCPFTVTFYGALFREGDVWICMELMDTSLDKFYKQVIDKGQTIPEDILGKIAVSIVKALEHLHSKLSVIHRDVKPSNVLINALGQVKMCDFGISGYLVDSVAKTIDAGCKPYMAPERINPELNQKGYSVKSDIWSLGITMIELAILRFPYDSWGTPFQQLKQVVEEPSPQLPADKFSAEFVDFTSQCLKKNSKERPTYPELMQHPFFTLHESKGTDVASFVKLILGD
# Glycine--tRNA ligase = target: T2, Glycine--tRNA ligase (Homo sapiens, UniProt P41250)
# T2 sequence (P41250 whole entry): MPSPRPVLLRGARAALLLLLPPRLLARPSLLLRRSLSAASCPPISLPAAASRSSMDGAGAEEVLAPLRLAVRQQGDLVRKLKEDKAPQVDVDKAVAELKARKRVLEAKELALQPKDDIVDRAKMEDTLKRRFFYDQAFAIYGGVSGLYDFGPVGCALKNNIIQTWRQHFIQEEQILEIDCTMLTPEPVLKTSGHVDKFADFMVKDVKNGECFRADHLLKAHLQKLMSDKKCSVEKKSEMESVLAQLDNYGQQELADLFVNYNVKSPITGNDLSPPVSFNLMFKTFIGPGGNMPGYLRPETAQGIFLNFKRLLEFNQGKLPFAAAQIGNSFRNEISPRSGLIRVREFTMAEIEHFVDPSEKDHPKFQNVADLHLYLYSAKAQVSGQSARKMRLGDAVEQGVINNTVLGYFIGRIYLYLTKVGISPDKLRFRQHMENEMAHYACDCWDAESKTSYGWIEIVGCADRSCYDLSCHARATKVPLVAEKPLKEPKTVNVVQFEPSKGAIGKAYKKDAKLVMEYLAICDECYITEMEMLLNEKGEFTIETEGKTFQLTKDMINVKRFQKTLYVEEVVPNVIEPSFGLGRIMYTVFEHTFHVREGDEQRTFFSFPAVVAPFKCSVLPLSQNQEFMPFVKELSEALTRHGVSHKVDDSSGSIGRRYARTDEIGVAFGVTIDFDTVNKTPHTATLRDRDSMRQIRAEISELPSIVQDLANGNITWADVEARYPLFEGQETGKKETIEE
# [2] = target: Tyrosine-protein kinase JAK1 (Homo sapiens, UniProt P23458)
# Tyrosine-protein kinase JAK1, sequence (P23458 whole entry): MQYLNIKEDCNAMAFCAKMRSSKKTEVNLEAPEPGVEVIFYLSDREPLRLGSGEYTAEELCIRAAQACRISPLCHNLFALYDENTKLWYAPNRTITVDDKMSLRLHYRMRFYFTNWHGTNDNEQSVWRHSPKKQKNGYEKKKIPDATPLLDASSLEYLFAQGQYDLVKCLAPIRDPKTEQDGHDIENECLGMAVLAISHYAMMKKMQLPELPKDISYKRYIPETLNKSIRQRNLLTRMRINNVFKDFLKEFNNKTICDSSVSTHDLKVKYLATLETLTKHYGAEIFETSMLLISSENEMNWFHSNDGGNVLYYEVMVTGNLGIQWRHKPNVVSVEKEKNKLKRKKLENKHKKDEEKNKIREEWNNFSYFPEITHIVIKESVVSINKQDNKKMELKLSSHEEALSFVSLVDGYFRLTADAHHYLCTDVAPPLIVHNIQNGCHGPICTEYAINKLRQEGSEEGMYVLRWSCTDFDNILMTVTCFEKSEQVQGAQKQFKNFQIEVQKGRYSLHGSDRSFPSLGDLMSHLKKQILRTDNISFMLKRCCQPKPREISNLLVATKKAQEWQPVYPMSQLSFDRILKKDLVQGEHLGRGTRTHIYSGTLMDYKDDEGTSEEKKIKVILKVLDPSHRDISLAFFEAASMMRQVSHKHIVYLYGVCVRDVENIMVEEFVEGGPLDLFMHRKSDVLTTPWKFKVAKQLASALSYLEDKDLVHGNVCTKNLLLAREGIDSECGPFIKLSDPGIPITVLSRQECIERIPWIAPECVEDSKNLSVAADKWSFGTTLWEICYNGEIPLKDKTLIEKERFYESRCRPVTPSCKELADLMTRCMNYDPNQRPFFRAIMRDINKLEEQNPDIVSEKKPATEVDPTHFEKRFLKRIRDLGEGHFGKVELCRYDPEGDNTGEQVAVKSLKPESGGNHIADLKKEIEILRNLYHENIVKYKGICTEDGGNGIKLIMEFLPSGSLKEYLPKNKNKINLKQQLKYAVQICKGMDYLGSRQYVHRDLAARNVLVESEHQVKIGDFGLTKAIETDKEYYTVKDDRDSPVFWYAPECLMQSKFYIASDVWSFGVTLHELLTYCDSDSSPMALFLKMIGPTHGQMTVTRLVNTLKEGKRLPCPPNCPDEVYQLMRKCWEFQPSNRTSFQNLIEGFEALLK
# [3] = target: Serine/threonine-protein kinase SIK2 (Homo sapiens, UniProt Q9H0K1)
# Serine/threonine-protein kinase SIK2, sequence (Q9H0K1 whole entry): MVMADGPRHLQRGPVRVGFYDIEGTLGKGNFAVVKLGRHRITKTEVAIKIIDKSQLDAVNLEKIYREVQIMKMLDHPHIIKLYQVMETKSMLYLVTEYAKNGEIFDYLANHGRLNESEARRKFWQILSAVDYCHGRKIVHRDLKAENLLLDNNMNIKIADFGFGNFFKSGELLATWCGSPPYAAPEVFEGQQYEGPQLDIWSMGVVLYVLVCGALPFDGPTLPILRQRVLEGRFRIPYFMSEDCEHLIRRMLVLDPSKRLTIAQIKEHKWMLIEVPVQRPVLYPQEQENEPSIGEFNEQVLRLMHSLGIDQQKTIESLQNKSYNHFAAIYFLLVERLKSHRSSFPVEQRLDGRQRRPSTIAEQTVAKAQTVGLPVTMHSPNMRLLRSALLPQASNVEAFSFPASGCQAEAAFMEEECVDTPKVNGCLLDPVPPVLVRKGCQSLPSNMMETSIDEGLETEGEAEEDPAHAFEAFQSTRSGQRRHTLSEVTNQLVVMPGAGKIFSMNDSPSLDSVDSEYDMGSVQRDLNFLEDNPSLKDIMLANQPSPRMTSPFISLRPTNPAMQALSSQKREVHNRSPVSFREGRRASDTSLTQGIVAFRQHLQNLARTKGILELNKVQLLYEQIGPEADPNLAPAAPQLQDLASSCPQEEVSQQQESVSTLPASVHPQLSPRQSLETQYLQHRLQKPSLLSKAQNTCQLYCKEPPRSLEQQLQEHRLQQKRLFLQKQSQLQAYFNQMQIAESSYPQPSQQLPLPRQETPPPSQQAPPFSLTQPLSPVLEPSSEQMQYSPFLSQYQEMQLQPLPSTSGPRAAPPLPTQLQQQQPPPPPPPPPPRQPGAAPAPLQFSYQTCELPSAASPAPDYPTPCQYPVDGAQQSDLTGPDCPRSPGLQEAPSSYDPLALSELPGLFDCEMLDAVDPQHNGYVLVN
# [4] = target: T3, Uncharacterized protein FLJ45252 (Homo sapiens, UniProt Q6ZSR9); conditions: read-out: Kd apparent; k-562, colo 205, sk-n-be(2) and mv-4-11
# T3 sequence (Q6ZSR9 whole entry): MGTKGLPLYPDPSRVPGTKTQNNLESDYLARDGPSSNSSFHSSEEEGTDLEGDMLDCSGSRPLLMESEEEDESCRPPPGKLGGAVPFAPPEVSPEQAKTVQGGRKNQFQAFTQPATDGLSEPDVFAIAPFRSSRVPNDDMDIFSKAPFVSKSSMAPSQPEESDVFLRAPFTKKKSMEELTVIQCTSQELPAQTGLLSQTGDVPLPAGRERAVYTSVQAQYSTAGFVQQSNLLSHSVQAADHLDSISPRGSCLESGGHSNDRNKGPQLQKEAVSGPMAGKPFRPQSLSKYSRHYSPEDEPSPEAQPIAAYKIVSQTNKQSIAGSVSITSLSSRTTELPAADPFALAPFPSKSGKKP
# [5] = target: Protein kinase C delta type (Homo sapiens, UniProt Q05655)
# Protein kinase C delta type, sequence (Q05655 whole entry): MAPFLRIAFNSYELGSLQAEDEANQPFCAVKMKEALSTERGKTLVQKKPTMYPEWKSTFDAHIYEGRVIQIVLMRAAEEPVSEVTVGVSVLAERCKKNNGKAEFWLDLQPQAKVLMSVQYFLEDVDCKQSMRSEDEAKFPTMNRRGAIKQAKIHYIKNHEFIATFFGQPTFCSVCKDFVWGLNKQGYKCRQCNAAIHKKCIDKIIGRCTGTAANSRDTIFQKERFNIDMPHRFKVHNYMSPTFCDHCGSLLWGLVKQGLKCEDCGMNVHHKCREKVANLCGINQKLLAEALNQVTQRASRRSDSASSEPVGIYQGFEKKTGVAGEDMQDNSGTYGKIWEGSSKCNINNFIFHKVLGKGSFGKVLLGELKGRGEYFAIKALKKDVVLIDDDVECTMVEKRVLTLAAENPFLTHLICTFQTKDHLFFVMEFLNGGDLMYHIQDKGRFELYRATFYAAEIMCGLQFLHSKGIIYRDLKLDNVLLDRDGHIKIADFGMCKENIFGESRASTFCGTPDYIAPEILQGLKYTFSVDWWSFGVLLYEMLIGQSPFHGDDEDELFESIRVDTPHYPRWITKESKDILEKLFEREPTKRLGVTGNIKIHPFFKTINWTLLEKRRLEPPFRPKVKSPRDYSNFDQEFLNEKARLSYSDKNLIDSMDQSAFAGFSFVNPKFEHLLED
# [6] = target: T4, Inhibitor of nuclear factor kappa-B kinase subunit epsilon (Homo sapiens, UniProt Q14164)
# T4 sequence (Q14164 whole entry): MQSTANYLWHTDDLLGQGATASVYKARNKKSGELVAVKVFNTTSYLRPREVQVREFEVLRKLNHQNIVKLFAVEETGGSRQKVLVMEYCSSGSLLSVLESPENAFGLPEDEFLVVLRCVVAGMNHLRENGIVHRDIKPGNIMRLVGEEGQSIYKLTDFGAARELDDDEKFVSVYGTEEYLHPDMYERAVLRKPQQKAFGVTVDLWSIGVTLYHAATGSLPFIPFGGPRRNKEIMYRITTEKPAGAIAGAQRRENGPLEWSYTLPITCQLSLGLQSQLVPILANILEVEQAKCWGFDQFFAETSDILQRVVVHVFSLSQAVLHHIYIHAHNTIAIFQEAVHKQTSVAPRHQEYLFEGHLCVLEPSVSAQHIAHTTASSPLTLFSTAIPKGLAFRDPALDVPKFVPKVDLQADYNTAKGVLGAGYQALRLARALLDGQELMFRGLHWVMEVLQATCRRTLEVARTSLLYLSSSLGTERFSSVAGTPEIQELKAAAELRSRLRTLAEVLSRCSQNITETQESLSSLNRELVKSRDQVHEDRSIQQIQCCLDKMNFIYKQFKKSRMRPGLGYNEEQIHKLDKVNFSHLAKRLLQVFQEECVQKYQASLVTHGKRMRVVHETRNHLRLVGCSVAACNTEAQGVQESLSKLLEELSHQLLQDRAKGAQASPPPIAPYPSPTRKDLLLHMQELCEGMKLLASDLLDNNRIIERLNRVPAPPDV
# [7] = target: T5, Serine/threonine-protein kinase NLK (Homo sapiens, UniProt Q9UBE8)
# T5 sequence (Q9UBE8 whole entry): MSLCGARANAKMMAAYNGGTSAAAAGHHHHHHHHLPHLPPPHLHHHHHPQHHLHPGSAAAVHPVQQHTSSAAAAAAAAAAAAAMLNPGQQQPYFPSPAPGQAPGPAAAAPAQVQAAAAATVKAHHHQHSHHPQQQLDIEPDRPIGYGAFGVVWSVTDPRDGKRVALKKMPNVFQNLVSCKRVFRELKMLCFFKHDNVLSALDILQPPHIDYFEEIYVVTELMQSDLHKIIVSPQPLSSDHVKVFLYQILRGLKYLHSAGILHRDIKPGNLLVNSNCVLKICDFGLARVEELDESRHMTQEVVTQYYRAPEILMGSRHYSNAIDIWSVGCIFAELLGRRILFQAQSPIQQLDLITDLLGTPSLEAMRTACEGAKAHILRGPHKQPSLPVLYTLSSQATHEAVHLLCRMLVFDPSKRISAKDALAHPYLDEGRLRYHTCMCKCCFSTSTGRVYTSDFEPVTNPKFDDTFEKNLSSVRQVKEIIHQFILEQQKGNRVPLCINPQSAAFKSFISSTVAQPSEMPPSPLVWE
# [8] = target: Cyclin-dependent kinase 5 (Homo sapiens, UniProt Q00535)
# Cyclin-dependent kinase 5, sequence (Q00535 whole entry): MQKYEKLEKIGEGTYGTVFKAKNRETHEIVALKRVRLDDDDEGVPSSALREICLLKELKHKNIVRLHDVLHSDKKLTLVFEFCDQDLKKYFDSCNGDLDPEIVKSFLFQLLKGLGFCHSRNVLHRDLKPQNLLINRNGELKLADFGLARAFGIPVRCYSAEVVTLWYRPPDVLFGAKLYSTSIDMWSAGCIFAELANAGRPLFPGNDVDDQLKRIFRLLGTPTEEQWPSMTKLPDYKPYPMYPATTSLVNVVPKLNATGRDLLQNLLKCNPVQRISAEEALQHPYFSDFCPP
# Note: in the data inactive means no Kd found up to 30 µM.
Structure (SMILES),Kd [1],Kd (Glycine--tRNA ligase),Kd [2],Kd [3],Kd [4],Kd [5],Kd [6],Kd [7],Kd [8]
Cn1c(=O)c(F)c(Nc2ccc(I)cc2F)c2c(=O)n(C[C@@H](O)CO)cnc21 [TAK-733],> 30 µM (inactive),> 30 µM (inactive),> 30 µM (inactive),> 30 µM (inactive),> 30 µM (inactive),> 30 µM (inactive),> 30 µM (inactive),> 30 µM (inactive),> 30 µM (inactive)
COc1cc2ncnc3c2cc1OCCCCCN(C)Cc1ccc(Br)cc1N3 [JNJ-26483327],> 30 µM (inactive),> 30 µM (inactive),> 30 µM (inactive),> 30 µM (inactive),> 30 µM (inactive),> 30 µM (inactive),> 30 µM (inactive),> 30 µM (inactive),> 30 µM (inactive)
COc1cc2ncnc(Nc3ccc(F)c(Cl)c3)c2cc1NC(=O)/C=C/CN1CCCCC1 [DACOMITINIB ANHYDROUS],> 30 µM (inactive),> 30 µM (inactive),> 30 µM (inactive),> 30 µM (inactive),> 30 µM (inactive),> 30 µM (inactive),> 30 µM (inactive),> 30 µM (inactive),> 30 µM (inactive)
C#Cc1cccc(Nc2ncnc3cc4c(cc23)OCCOCCOCCO4)c1 [ICOTINIB],> 30 µM (inactive),> 30 µM (inactive),> 30 µM (inactive),> 30 µM (inactive),> 30 µM (inactive),> 30 µM (inactive),> 30 µM (inactive),> 30 µM (inactive),> 30 µM (inactive)
Cc1cc(C(=O)Nc2cc(Oc3ccc4nc(NC(=O)C5CC5)cn4n3)ccc2C)n(C)n1 [TAK-593],> 30 µM (inactive),> 30 µM (inactive),> 30 µM (inactive),> 30 µM (inactive),0.869 µM (active),> 30 µM (inactive),> 30 µM (inactive),> 30 µM (inactive),> 30 µM (inactive)
COc1cc2ncnc(Nc3ccc(O)cc3)c2cc1OC [WHI-P131],> 30 µM (inactive),> 30 µM (inactive),> 30 µM (inactive),> 30 µM (inactive),1.54 µM (active),> 30 µM (inactive),> 30 µM (inactive),> 30 µM (inactive),> 30 µM (inactive)
O=C(O)c1ccc2c(c1)nc(Nc1cccc(Cl)c1)c1ccncc12 [SILMITASERTIB],> 30 µM (inactive),> 30 µM (inactive),> 30 µM (inactive),> 30 µM (inactive),> 30 µM (inactive),> 30 µM (inactive),> 30 µM (inactive),> 30 µM (inactive),0.514 µM (active)
O[C@H]1CC[C@H](Nc2ncc3nc(Nc4c(F)cc(F)cc4F)n([C@H]4CCOC4)c3n2)CC1 [TANZISERTIB],> 30 µM (inactive),> 30 µM (inactive),> 30 µM (inactive),> 30 µM (inactive),> 30 µM (inactive),> 30 µM (inactive),> 30 µM (inactive),> 30 µM (inactive),> 30 µM (inactive)
S=C(NCc1ccc2c(c1)OCO2)N1CCN(c2ncnc3c2oc2ccccc23)CC1 [AMUVATINIB],> 30 µM (inactive),> 30 µM (inactive),> 30 µM (inactive),> 30 µM (inactive),> 30 µM (inactive),> 30 µM (inactive),> 30 µM (inactive),> 30 µM (inactive),> 30 µM (inactive)
COc1cccc(Nc2ncnn3ccc(CN4CC[C@@H](N)[C@H](O)C4)c23)c1 [BMS-690514],> 30 µM (inactive),> 30 µM (inactive),> 30 µM (inactive),0.048 µM (active),–,1.74 µM (active),> 30 µM (inactive),> 30 µM (inactive),> 30 µM (inactive)
FC(F)(F)c1ccc(CNc2ccc(Cc3c[nH]c4ncc(Cl)cc34)cn2)cn1 [PEXIDARTINIB],> 30 µM (inactive),> 30 µM (inactive),> 30 µM (inactive),> 30 µM (inactive),–,> 30 µM (inactive),> 30 µM (inactive),> 30 µM (inactive),> 30 µM (inactive)
